How the values were obtained:
Experiment in all cases: relative viability (nuclei count vs DMSO), 5 days (fraction); higher = more cells survive
[1] = compound: COC1=C(C=C(C=C1)C2=CC3=NC=CN3C(=N2)NC4=C(C=CC=N4)C(=O)N)OC [BAY61-3606] + N=C(N)NC(=N)NCCc1ccccc1 [Phenformin] (partner 250 µM)
In short: (§1)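 Nuclei were stained with Hoechst during a one-step fixation (final 0.05% Triton X-100, 1% formaldehyde, 1 ug/ml Hoechst) carried out 5 days after dosing, then counted on 4× images. The cells, lung cancer lines in 1536-well plates, had been dosed by pin tool the day after seeding with one drug alone or a fixed anchor-drug dose plus five library-drug doses (not always all listed) in √10 steps. Relative viability is the nuclei count in treated wells divided by that in vehicle wells, and each value is the median of duplicate plates.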

[2] = compound: COc1cccc2c1C(=O)c1c(O)c3c(c(O)c1C2=O)C[C@@](O)(C(=O)CO)C[C@@H]3O[C@H]1C[C@H](N)[C@H](O)[C@H](C)O1 [Doxorubicin] + CC(C)C[C@H](NC(=O)[C@H](Cc1ccccc1)NC(=O)c1cnccn1)B(O)O [Bortezomib] (partner 0.002 µM)
In short: as §1

[3] = compound: COc1cccc2c1C(=O)c1c(O)c3c(c(O)c1C2=O)C[C@@](O)(C(=O)CO)C[C@@H]3O[C@H]1C[C@H](N)[C@H](O)[C@H](C)O1 [Doxorubicin] + CS(=O)(=O)CCNCc1ccc(-c2ccc3ncnc(Nc4ccc(OCc5cccc(F)c5)c(Cl)c4)c3c2)o1 [Lapatinib] (partner 2 µM)
In short: as §1

[4] = compound: COC1=C(C=C(C=C1)C2=CC3=NC=CN3C(=N2)NC4=C(C=CC=N4)C(=O)N)OC [BAY61-3606] + Cc1cc(Nc2cc(N3CCN(C)CC3)nc(Sc3ccc(NC(=O)C4CC4)cc3)n2)n[nH]1 [Tozasertib] (partner 0.1 µM)
In short: as §1

Cell Line	relative viability ([1]; first compound 0.02 µM)	relative viability ([1]; first compound 0.06325 µM)	relative viability ([1]; first compound 0.2 µM)	relative viability ([1]; first compound 0.6325 µM)	relative viability ([1]; first compound 2 µM)	relative viability ([2]; first compound 0.001 µM)	relative viability ([2]; first compound 0.003162 µM)	relative viability ([2]; first compound 0.01 µM)	relative viability ([2]; first compound 0.03162 µM)	relative viability ([2]; first compound 0.1 µM)	relative viability ([3]; first compound 0.001 µM)	relative viability ([3]; first compound 0.003162 µM)	relative viability ([3]; first compound 0.01 µM)	relative viability ([3]; first compound 0.03162 µM)	relative viability ([3]; first compound 0.1 µM)	relative viability ([4]; first compound 0.02 µM)	relative viability ([4]; first compound 0.06325 µM)	relative viability ([4]; first compound 0.2 µM)	relative viability ([4]; first compound 0.6325 µM)	relative viability ([4]; first compound 2 µM)
201T	0.461	0.425	0.449	0.511	0.444	1.06	0.991	1.14	1.15	1.05	0.942	0.968	1.04	1.01	1.03	1	0.593	0.774	0.565	0.378
A549	0.17	0.0908	0.0972	0.212	0.166						0.922	0.954	0.415	0.0939	0.0714					
A-427	0.417	0.235	0.287	0.315	0.257	1.03	1.06	0.966	0.942	0.991	1.1	0.985	1.06	1.04	1.02	0.222	0.183	0.171	0.222	0.187
ABC-1	0.254	0.269	0.219	0.227	0.284	0.304	0.324	0.364	0.273	0.251	1.14	1.54	0.975	1.07	1.1	0.2	0.181	0.163	0.16	0.208
BEN	0.272	0.257	0.294	0.284	0.255	1.01	1.05	0.821	0.632	0.74	1.01	0.608	0.697	0.474	0.644	0.489	0.494	0.648	0.673	0.465
CAL-12T	0.559	0.592	0.502	0.557	0.266	1.01	1.06	0.853	0.567	0.307	0.597	0.656	0.517	0.67	0.404	0.289	0.305	0.198	0.303	0.165
COR-L23	0.474	0.438	0.495	0.466	0.352	1.04	0.996	0.872	0.447	0.156	0.955	1.19	0.921	0.241	0.14	0.203	0.133	0.148	0.14	0.117
COR-L 105	0.494	0.506	0.435	0.413	0.323	0.787	0.71	0.74	0.41	0.256	0.372	0.358	0.321	0.287	0.283	0.349	0.334	0.339	0.36	0.244
Calu-6						0.897	1.01	0.804	0.408	0.248	0.959	1.05	0.678	0.261	0.221					
ChaGo-K-1	0.513	0.451	0.515	0.462	0.52	1.16	0.832	0.948	0.47	0.319						0.237	0.21	0.232	0.22	0.223
EBC-1						0.589	0.52	0.542	0.363	0.222	0.236	0.21	0.22	0.195	0.181					
EKVX	0.239	0.228	0.221	0.222	0.234	0.956	1.04	1.06	0.994	0.591	0.233	0.234	0.228	0.188	0.182	0.366	0.299	0.383	0.436	0.16
EMC-BAC-2	0.582	0.509	0.485	0.521	0.444	1.11	1.1	0.997	0.518	0.451	0.943	0.956	0.801	0.415	0.269	0.288	0.19	0.243	0.238	0.225
EPLC-272H	0.254	0.294	0.312	0.303	0.228	0.827	0.98	0.897	1.05	0.931	0.918	0.906	0.919	0.944	0.989	0.262	0.247	0.362	0.242	0.157
H3255	0.351	0.342	0.371	0.399	0.342	0.675	0.889	0.856	0.589	0.306	0.261	0.262	0.247	0.259	0.228	0.6	0.64	0.54	0.649	0.701

From the supplement of paper PMC10307832
